Where two headings read alike, the source gives them in different places.
Columns and labels:
[1] = system: phenylbenzoquinone (PBQ)-induced writhing in mice; test: Writhing Assay (phenylbenzoquinone-induced writhing, analgesia); format: in vivo, Charles River male albino mice; details: Mus musculus, 25 min, 25 min before PBQ i.p., number of mice out of ten with analgesia
Source text: The Writhing Assay is one of the most widely-used experimental procedures for measuring the analgesic activity of different narcotic and nonnarcotic analgesic agents, and involves the continuous, chemically-induced pain of visceral origin to an animal, such as a mouse or rat. [Gyires et al., Arch. int. Pharmacodyn, 267, 131-140 (1984); C. Vander Wende et al., Fed. Proc., 15, 494 (1956); Koster et al., Fed. Proc., 18, 412 (1959); and Witken et al., J. Pharmacol. exp. Ther., 133, 400-408 (1961).] Chemicals which may be used to induce this pain include phenylbenzoquinone (PBQ) and acetic acid. As a result of the chemical irritation to the animal, a characteristic stretching and writhing of the animal (dorsiflexion of the animal's back, extension of its hindlimbs and the strong contraction of its abdominal musculature) will generally occur. […] Drugs which reduce the number of writhes of the animal appear to restore the normal nociceptive threshold of the animal.
Charles River male albino mice, weighing 20 to 30 grams were used in this assay.
Twenty-five minutes after subcutaneous or intragastric administration to ten mice of 30 mg per kilogram of body weight of a compound of the present invention ("test compound"), […] per 10 g of body weight of a 0.025% w/v solution of PBQ was injected intraperitoneally into each mouse. Ten mice which were given saline in place of a test compound of the invention were used as a control group.
Five minutes later, each mouse was individually placed into a glass beaker for observation, and the number of writhes occurring during the following ten-minute period was counted.
A test compound was considered to have produced analgesia in a mouse if, in accordance with the conditions set forth above, and under the test criteria employed for this assay, after the administration of 30 mg per kilogram of body weight of a compound of the present invention to the mouse, the number of writhes elicited by a mouse injected with PBQ was equal to, or less than, one-half the median number of writhes recorded for the saline-treated control group of mice that day, as described by Taber in "Predictive Value of Analgesic Assays in Mice and Rats," Advances in Biochemical Psychopharmacology, 8, 191 (1974).
The results for the particular compounds of the present invention analyzed in this assay, and discussed in the examples identified below which correspond thereto, are presented in Table 2 hereinbelow under the heading "WRITHING ASSAY." The fractions indicate the number of mice out of ten in which a test compound produced analgesia.

[2] = molecular target: T1, prostaglandin E2-induced contractions of segments of guinea pig ileum (Cavia porcellus, UniProt A0A286XHJ6); test: Prostaglandin (PGE) Antagonism Assay in guinea pig ileum; details: initial concentration 3 micromolar; estimated pA2 (slope -1.0 assumed) or Schild plot pA2
T1 construct: The ilea were then quickly removed from the guinea pigs; from tissue; host or cells: ileum segments of male albino guinea pigs
T1 sequence (A0A286XHJ6 1-405): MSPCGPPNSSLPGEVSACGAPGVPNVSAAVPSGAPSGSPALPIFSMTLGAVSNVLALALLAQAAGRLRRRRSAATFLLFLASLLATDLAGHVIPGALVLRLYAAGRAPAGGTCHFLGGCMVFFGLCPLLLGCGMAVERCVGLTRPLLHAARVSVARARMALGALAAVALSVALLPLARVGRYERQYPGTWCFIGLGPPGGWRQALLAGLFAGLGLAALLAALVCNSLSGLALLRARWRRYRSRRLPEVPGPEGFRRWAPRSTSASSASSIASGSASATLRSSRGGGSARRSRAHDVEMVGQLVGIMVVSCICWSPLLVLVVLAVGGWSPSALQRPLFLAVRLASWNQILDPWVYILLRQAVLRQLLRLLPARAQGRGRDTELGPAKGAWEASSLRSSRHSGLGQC
Protocol: In order to determine the effectiveness of several of the compounds of the present invention ("test compounds") as prostaglandin E2 antagonists,a prostaglandin antagonism assay was conducted, as described below, to determine the ability of these compounds to inhibit prostaglandin E2 -induced contractions of segments of guinea pig ileum.
Male albino guinea pigs weighing 200 to 500 grams were sacrificed by cervical dislocation. The ilea were then quickly removed from the guinea pigs and placed in a modified Tyrode solution, a solution which is known to those skilled in the art, containing one-half of the usual amount of magnesium ions.
Segments of ileum about 2 cm long were then cut and mounted in a 10-mL tissue bath containing the modified Tyrode solution. The solution was maintained at 37° C. and aerated with a gaseous mixture of 95% oxygen and 5% carbon dioxide. Data for a control prostaglandin E2 dose response curve plotting concentration of prostaglandin E2 versus the intensity of contractions, detected isotonically, was then obtained by experimentally adjusting the dose of the prostaglandin E2 being injected into the tissue bath, in a manner known by those of skill in the art.
Solutions or suspensions containing an initial concentration (3 micromolar) of a test compound in modified Tyrode solution ("test solutions/suspensions") were then separately substituted for the control bath solution. Each test solution/suspension was then kept in constant contact with the ileum tissue, except for brief periods to drain the bath in preparation for rinsing with fresh test solution/suspension. A second prostaglandin E2 dose response curve was then generated for prostaglandin E2 in the presence of a test compound.
A dose ratio of EC50 doses was then calculated from the results of each test in a manner known by those of skill in the art. A test compound was determined to be "active" if the initial concentration used yielded at least a two-fold shift (dose ratio greater than or equal to 2) in the dose response curve for prostaglandin E2.
The compounds of the present invention which were tested in this assay, and for which results are presented in Table 2, correspond to the particular examples specified in Table 2.

[3] = ip, 30 mg per kg i.g., read-out: WRITHING ASSAY Number Out of Ten I.G. (converted)
[4] = sc, 30 mg per kg s.c., read-out: WRITHING ASSAY Number Out of Ten S.C.

Structure (SMILES)	responders at 30 mg/kg [1, 3]	responders at 30 mg/kg [1, 4]	Kb [2]
CCS(=O)(=O)CCC(=O)NNC(=O)N1Cc2ccccc2Oc2ccc(C(=O)OC)cc21 [Example 1, Dibenz [b,f][1,4]oxazepine-8,10(11H)dicarboxylic acid, 8-methyl ester, 10-[2-[3-(ethylsulfonyl)-1-oxopropyl]hydrazide]]	30%	50%	2880 nM
CCS(=O)(=O)CCC(=O)NNC(=O)N1Cc2ccccc2Oc2cc(C(=O)OC)ccc21 [Example 2, Dibenz[b,f][1,4]oxazepine-7,10(11H) dicarboxylic acid, 7-methyl ester, 10-[2-[3-(ethylsulfonyl)-1-oxopropyl]hydrazide]]	33.3%	30%	2000 nM
CCS(=O)(=O)CCC(=O)NNC(=O)N1Cc2ccccc2Oc2ccc(C(=O)OC(C)(C)C)cc21 [Example 3, Dibenz[b,f][1,4]oxazepine-8,10(11H)-dicarboxylic acid, 8-(1,1-dimethylethyl) ester, 10-[2-[3-(ethylsulfonyl)-1-oxopropyl]hydrazide]]	40%	30%	1780 nM
CCS(=O)(=O)CCC(=O)NNC(=O)N1Cc2ccccc2Oc2ccc(C(=O)O)cc21 [Example 4, Dibenz[b,f][1,4]oxazepine-8,10(11H)-dicarboxylic acid, 10-[2-[3-(ethylsulfonyl)-1-oxopropyl]hydrazide]]	30%	40%	
CCS(=O)(=O)CCC(=O)NNC(=O)N1Cc2ccccc2Oc2cc(C(=O)OC(C)(C)C)ccc21 [Example 5, Dibenz[b,f][1,4]oxazepine-7,10(11H)-dicarboxylic acid, 7-(1,1-dimethylethyl) ester, 10-[2-[3-(ethylsulfonyl)-1-oxopropyl]hydrazide]]	20%	30%	1170 nM
CCS(=O)(=O)CCC(=O)NNC(=O)N1Cc2ccccc2Oc2cc(C(=O)O)ccc21 [Example 6, Dibenz[b,f][1,4]oxazepine-7,10(11H)-dicarboxylic acid, 10-[2-[3-(ethylsulfonyl)-1-oxopropyl]hydrazide]]	40%	20%	2630 nM
CCS(=O)(=O)CCC(=O)NNC(=O)N1Cc2ccccc2Oc2ccc(F)cc21 [Example 7, 8-fluorodibenz[b,f][1,4]oxazepine-10(11H)-carboxylic acid, 2-[3-(ethylsulfonyl)-1-oxopropyl]hydrazide]	40%	60%	
CCS(=O)(=O)CCC(=O)NNC(=O)N1Cc2cc(Cl)ccc2Oc2ccccc21 [Example 8, 2-chlorodibenz[b,f][1,4]oxazepine-10(11H)-carboxylic acid, 2-[3-(ethylsulfonyl)-1-oxopropyl]hydrazide]	60%	60%	
CCS(=O)(=O)CCC(=O)NNC(=O)N1Cc2cc(Cl)ccc2Oc2ccc(Cl)cc21 [Example 9, 2,8-dichlorodibenz[b,f][1,4]oxazepine-10(11H)-carboxylic acid, 2-[3-(ethylsulfonyl)-1-oxopropyl]hydrazide]	40%	30%	1580 nM
CCS(=O)(=O)CCC(=O)NNC(=O)N1Cc2ccccc2Oc2ccc([N+](=O)[O-])cc21 [Example 10, 8-nitrodibenz[b,f][1,4]oxazepine-10(11H)-carboxylic acid, 2-[3-(ethylsulfonyl)-1-oxopropyl]hydrazide]	40%	40%	2880 nM
CCS(=O)(=O)CCC(=O)NNC(=O)N1Cc2ccccc2Oc2ccc(C#N)cc21 [Example 11, 8-cyanodibenz[b,f][1,4]oxazepine-10(11H)-carboxylic acid, 2-[3-(ethylsulfonyl)-1-oxopropyl]hydrazide]	55.6%	50%	
CCS(=O)(=O)CCC(=O)NNC(=O)N1Cc2ccccc2Oc2c(Cl)cccc21 [Example 12, 6-chlorodibenz[b,f][1,4]oxazepine-10(11H)-carboxylic acid, 2-[3-(ethylsulfonyl)-1-oxopropyl]hydrazide]	30%	40%	1150 nM
CCS(=O)(=O)CCC(=O)NNC(=O)N1Cc2ccccc2Oc2ccc(N)cc21 [Example 13, 8-aminodibenz[b,f][1,4]oxazepine-10(11H)-carboxylic acid, 2-[3-(ethylsulfonyl)-1-oxopropyl]hydrazide]	40%	40%	2820 nM
CCS(=O)(=O)CCC(=O)NNC(=O)N1Cc2ccccc2Oc2ccc(NS(C)(=O)=O)cc21 [Example 14, 8-[(methylsulfonyl)amino]dibenz[b,f][1,4]-oxazepine-10(11H)-carboxylic acid, 2-[3-(ethylsulfonyl)-1-oxopropyl]hydrazide]	60%	60%	
CCN(CC)c1ccc2c(c1)N(C(=O)NNC(=O)CCS(=O)(=O)CC)Cc1ccccc1O2 [Example 15, 8-(diethylamino)dibenz[b,f][1,4]oxazepine-10(11H)-carboxylic acid, 2-[3-(ethylsulfonyl)-1-oxopropyl]hydrazide]	30%	10%	708 nM
CCS(=O)(=O)CCC(=O)NNC(=O)N1Cc2ccccc2Oc2ccc(OC)cc21 [Example 16, 8-methoxydibenz[b,f][1,4]oxazepine-10(11H)-carboxylic acid, 2-[3-(ethylsulfonyl)-1-oxopropyl]hydrazide]	60%	20%	2000 nM
CCS(=O)(=O)CCC(=O)NNC(=O)N1Cc2ccccc2Sc2ccc(Cl)cc21 [Example 22, 8-chloro-10,11-dihydrodibenzo[b,f][1,4]thiazepine-10-(11H) carboxylic acid, 2-[3-(ethysulfonyl)-1-oxopropyl]hydrazide]	60%	30%	
CCS(=O)(=O)CCC(=O)NNC(=O)N1Cc2ccccc2S(=O)(=O)c2ccc(Cl)cc21 [Example 23, 8-chloro-10,11-dihydrodibenzo[b,f][1,4]thiazepine-10(11H) carboxylic acid, 2-[3-(ethylsulfonyl)-1-oxopropyl]hydrazide, 5,5-dioxide]	30%	70%	

— US5461046A, “1-,2-,3-,4-,5-,6-,7-,8-, and/or 9-substituted dibenzoxazepine compounds, pharmaceutical compositions and methods for treating pain” (G. D. Searle & Co., priority 1993, dated 1995)
